Counter-ions that a name gives are not always drawn.
Legend:
Penicillium expansum [1] = experiment: In vivo volatile bioassay on inoculated fruit (apple, pear); settings: P. expansum, 10 mg/L headspace, sublimed, 3 day treatment plus additional 3 days at 21° C.
Experimental: (§1) To assess the in vivo activity of volatile antimicrobial compound of Sample 1 (see Example 1) in fruit, a volatile bioassay is developed using apple, pear, orange, strawberry, grape and blueberry. Two apples, two oranges, two pears, eight strawberries, sixteen grapes or thirty blueberries (per rep, in duplicate) are placed in a clamshell with the stem end facing up for all fruits except for strawberry (stem end facing downwards). A fresh wound is inoculated with 20 μL 1×10^6 per mL Penicillium expansum (P. expansum) spore suspension (apple and pear), 20 μL×1×10^6 per mL Penicillium digitatum (P. digitatum) spore suspension (orange), and 20 μL×1×10^6 (strawberry and grape) or 10 μL (blueberry) of 1×10^5 per mL Botrytis cinerea (B. cinerea) spore suspension. The clamshells are placed inside a 117 L Rubbermaid storage box (Cat #2244), and the lids closed.
(§2) Sample 1, prepared according to Example 1 and dissolved in acetone, is pipetted onto a cotton strip, where the acetone is allowed to evaporate for 5 min, and then introduced into the container by a sublimation device (copper tube heated to 200° C. with fan flow at 0.5 liters per minute (L/min)) to achieve a final headspace concentration of 10 mg/L). The containers are then held for 3 d at 21° C. After treatment, the fruits are held for an additional 3 d at 21° C., then evaluated for disease incidence (millimeter (mm) diameter of browning or water-soaked lesions) and pathogen sporulation (mm diameter) for apple, pear and orange, as well as Botrytis cinerea disease incidence (%) and severity (0 to 4) for strawberry, grape and blueberry. Results are summarized in Table 2 showing good in vivo antimicrobial control of three fungal pathogens on six different hosts when applied as a volatile fungicide. Results are also depicted in FIG. 1.

Penicillium digitatum = experiment: In vivo volatile bioassay on inoculated fruit (orange); settings: P. digitatum, 10 mg/L headspace, sublimed, 3 day treatment plus additional 3 days at 21° C.
From the text: To assess the in vivo activity of volatile antimicrobial compound of Sample 1 (see Example 1) in fruit, a volatile bioassay is developed using apple, pear, orange, strawberry, grape and blueberry. Two apples, two oranges, two pears, eight strawberries, sixteen grapes or thirty blueberries (per rep, in duplicate) are placed in a clamshell with the stem end facing up for all fruits except for strawberry (stem end facing downwards). […]
as §2, with “The containers are then held for 3 d at 21° C.” left out, “Results are summarized in Table 2 showing good in vivo antimicrobial control of three fungal pathogens on six different hosts when applied as a volatile fungicide. Results are also depicted in FIG. 1.” left out

Penicillium expansum [2] = experiment: In vitro volatile inhibition assay, 12-well plate, half-strength PDA; assay type: cell-based; settings: P. expansum, 3 d at 23° C.; for percent growth relative to control: volatile
Experimental: (§3) A 12-well microtiter plate (6.5 milliliter (mL) volume per well) is used for the in vitro inhibition assay for volatile antimicrobial compound of Sample 1 (see Example 1) against two plant fungal pathogens. A 3-mL volume of half-strength Potato Dextrose Agar (PDA) is added to each well. After cooling, 1 microliter (μL) of 1×10^5 spores per mL of Botrytis cinerea (B. cinerea) or Penicillium expansum (P. expansum) suspension is spotted to the center of the agar. A Whatman #1 filter disk (Cat. No. 1001-0155) is placed, in duplicate, on the underside of a polyethylene polymerase chain reaction (PCR) plate sealing film.
(§4) For determination of the minimum inhibitory concentration (MIC), the test compound is diluted in acetone, and the appropriate amount of compound added to disks in a dose dependent manner to achieve a final headspace concentration of 35.7 to 0.03 milligrams per liter (mg/L). The acetone is permitted to evaporate for 5 min. The headspace around the inoculum is then sealed inside the well by the film with the adhering disk containing the fungicide. The plates are inverted, placed over the treated disks and sealed to prevent any of the chemical from flaking from the disk and falling onto the inoculated agar. After 3 days (d) of storage at 23° C., cultures are evaluated for percent growth relative to control. Results are summarized in Table 1 showing the ability of benzoxaborole compound of Sample 1 to control the growth of two fungal plant pathogens through volatile activity.

Botrytis cinerea [3] = experiment: as above; assay type: cell-based; settings: B. cinerea, 3 d at 23° C.; for percent growth relative to control: volatile
Experimental: as §3, §4

Botrytis cinerea [4] = experiment: In vivo volatile bioassay on inoculated fruit (strawberry, grape, blueberry); settings: B. cinerea, 10 mg/L headspace, sublimed, 3 day treatment plus additional 3 days at 21° C.
Experimental: as §1, §2

[5] = headspace concentration 0.03 mg/L
[6] = headspace concentration 0.07 mg/L
[7] = headspace concentration 0.1 mg/L
[8] = headspace concentration 0.3 mg/L
[9] = headspace concentration 0.6 mg/L
[10] = headspace concentration 1.1 mg/L
[11] = headspace concentration 2.2 mg/L
[12] = headspace concentration 4.5 mg/L
[13] = headspace concentration 8.9 mg/L
[14] = headspace concentration 17.9 mg/L
[15] = headspace concentration 35.7 mg/L
[16] = Penicillium expansum, 72 h, applied as a volatile fungicide, headspace concentration
[17] = Botrytis cinerea, 72 h, applied as a volatile fungicide, headspace concentration

## Fc1ccc2c(c1)CO[B-]2(F)F [Sample 1, potassium 1,1,5-trifluoro-1,3-dihydro-2,1-benzoxaborolate salt]
Penicillium expansum [1]; Apple
  Browning (mm): 4.8 mm
  Sporulation (mm): 7.3 mm
Penicillium expansum [1]; Pear
  Browning (mm): 5.3 mm
  Sporulation (mm): 4.3 mm
Penicillium digitatum
  Sporulation (mm): 0.0 mm
  Water soaked lesion (mm): 12.7 mm
Penicillium expansum [2]; [5]
  percent growth relative to control: −2.7%
Penicillium expansum [2]; [6]
  percent growth relative to control: −1.9%
Penicillium expansum [2]; [7]
  percent growth relative to control: −3.3%
Penicillium expansum [2]; [8]
  percent growth relative to control: −8.2%
Penicillium expansum [2]; [9]
  percent growth relative to control: 12.9%
Penicillium expansum [2]; [10]
  percent growth relative to control: 56.2%
Penicillium expansum [2]; [11]
  percent growth relative to control: 73%
Penicillium expansum [2]; [12]
  percent growth relative to control: 100%
Penicillium expansum [2]; [13]
  percent growth relative to control: 100%
Penicillium expansum [2]; [14]
  percent growth relative to control: 100%
Penicillium expansum [2]; [15]
  percent growth relative to control: 100%
Penicillium expansum [2]; [16]
  EC50: 1.2 µg/mL
  MIC: 4.5 µg/mL
Botrytis cinerea [3]; [5]
  percent growth relative to control: 0%
Botrytis cinerea [3]; [6]
  percent growth relative to control: 0%
Botrytis cinerea [3]; [7]
  percent growth relative to control: 0%
Botrytis cinerea [3]; [8]
  percent growth relative to control: 0%
Botrytis cinerea [3]; [9]
  percent growth relative to control: 64.8%
Botrytis cinerea [3]; [10]
  percent growth relative to control: 100%
Botrytis cinerea [3]; [11]
  percent growth relative to control: 100%
Botrytis cinerea [3]; [12]
  percent growth relative to control: 100%
Botrytis cinerea [3]; [13]
  percent growth relative to control: 100%
Botrytis cinerea [3]; [14]
  percent growth relative to control: 100%
Botrytis cinerea [3]; [15]
  percent growth relative to control: 100%
Botrytis cinerea [3]; [17]
  EC50: 0.5 µg/mL
  MIC: 1.1 µg/mL
Botrytis cinerea [4]; Blueberry
  Incidence (%): 5.0%
  Severity (0-4): 0.06
Botrytis cinerea [4]; Grape
  Incidence (%): 23.3%
  Severity (0-4): 0.12
Botrytis cinerea [4]; Strawberry
  Incidence (%): 6.3%
  Severity (0-4): 0.03

Reference: patent US10159252B2, “Fungicidal compounds and compositions” (AgroFresh Inc., priority 2015, dated 2018)
